Measured values published in publication PMC9455146, “Effects of Novel Photosynthetic Inhibitor [CuL2]Br2 Complex on Photosystem II Activity in Spinach” (Cells, 2022).

Target: T1, D1-protein of the PSII reaction center (QB-plastoquinone-herbicide-binding protein) (Spinacia oleracea, UniProt P69560)
T1 construct: gene psbA; native protein in isolated spinach thylakoids; with photosystem II complex
Assay: PSII chlorophyll fluorescence (PAM) in isolated thylakoids; block of Light 1-induced QA- re-oxidation
Assay type: biochemical

CN(C)C(=O)Nc1ccc(Cl)c(Cl)c1 [DCMU, 3-(3,4-dichlorophenyl)-1,1-dimethylurea]
Concentration blocking Light 1-induced QA- re-oxidation: 0.5 µM
